Source: patent publication US5591741A, “Fungicidal spiroheterocyclic derivatives” (American Cyanamid Company, priority 1993, dated 1997)

Assays:
Alternaria solani = test: Activity against tomato early blight (AS); assay type: in vivo; conditions: Table VI; tomato seedlings, contact prophylactic foliar spray, 4 days
Protocol: b) Activity against tomato early blight (Alternaria solani; AS) This test measures the contact prophylactic activity of test compounds applied as a foliar spray. Tomato seedlings (cv Outdoor Girl) are grown to the stage at which the second true leaf is expanded. The plants are treated using an automated sprayline as described under (a). Test compounds are applied as solutions or suspensions in a mixture of acetone and water (50:50 v/v) containing 0.04% surfactant ("TWEEN 20"--Trade Mark). After drying the plants are kept for 24 hours in a glasshouse at 20° C. and 40% R.H., followed by inoculation of the leaf upper surfaces with a suspension of A. solani conidia containing 10^4 spores/ml. For 4 days after inoculation plants are kept moist in a humidity compartment at 21° C. Disease is assessed 4 days after inoculation, based on the percentage of leaf surface area covered by lesions when compared with control plants. The extent of disease control in all the above tests is expressed as a rating compared with either an untreated control or a diluent-sprayed-control, according to the criteria: […]

Rhizoctonia solani = test: Activity against Rhizoctonia in-vitro (RSI); assay type: cell-based; conditions: 10 ppm, 10 days, 20° C., mycelial growth
Protocol: (i) Activity against Rhizoctonia in-vitro (Rhizoctonia solani: RSI) This test measures the in-vitro activity of compounds against R. solani that causes stem and root rots. The test compound in acetone is added into 4 ml aliquots of half strength Potato Dextrose Broth dispensed in 25-compartment petri dishes to give final concentrations of 10 ppm. The fungal inoculum consists of mycelial fragments of R. solani growth in half strength PDB in shaken culture flasks and added to the broth to provide 5×10^4 fragments/ml broth. Petri dishes are incubated at 20° C. for 10 days until the assessment of mycelial growth. The extent of disease control in all the above tests is expressed as a rating compared with either an untreated control or a diluent-sprayed-control, according to the criteria: […]

Phytophthora infestans = assay type: in vivo; conditions: tomato, direct protectant foliar spray
[1] = system: Erysiphe graminis f.sp. hordei; test: Direct protectant activity against barley powdery mildew (EGP); assay type: in vivo; conditions: direct protectant foliar spray, 8 days
Protocol: (f) Direct protectant activity against barley powdery mildew (Erysiphe graminis f.sp. hordei; EGP) The test is a direct protectant foliar spray. Leaves of barley seedlings (cv Golden Promise) at the single leaf stage are sprayed with the test compound as described under (a). After drying, the plants are kept for 24 hours in a glasshouse at 18° C. and 40% R.H. Then the plants are inoculated by dusting with mildew conidia and kept at 18° C. and 40% R.H. for 8 days. Assessment is based on the percentage of leaf area covered by sporulation compared with that on leaves of control plants. The extent of disease control in all the above tests is expressed as a rating compared with either an untreated control or a diluent-sprayed-control, according to the criteria: […]

Botrytis cinerea = test: Direct protectant activity against broad bean grey mould (BCB); assay type: in vivo; conditions: direct protectant foliar spray, 600 ppm, 4 days
Protocol: (c) Direct protectant activity against broad bean grey mould (Botrytis cinerea; BCB) The test is a direct protectant foliar spray. The upper surfaces of leaves of broad bean plants with two leaf pairs (cv The Sutton) are sprayed with the test compound at a dosage of 600 ppm using an automated sprayline as described under (a). 24 hours after spraying the leaves are inoculated with an aqueous suspension containing 10^6 conidia/ml. For 4 days after inoculation plants are kept in a high humidity compartment at 22° C. Disease is assessed 4 days after inoculation, based on the percentage of leaf surface area covered by lesions. The extent of disease control in all the above tests is expressed as a rating compared with either an untreated control or a diluent-sprayed-control, according to the criteria: […]

[2] = system: Pseudocercosporella herpotrichoides; test: Activity against wheat eyespot in-vitro (PHI); assay type: cell-based; conditions: 10 ppm, 10 days, 20° C., mycelial growth
Protocol: (h) Activity against wheat eyespot in-vitro (Pseudocercosporella herpotrichoides; pHI) This test measures the in vitro activity of compounds against the fungus causing wheat eyespot. The test compound is dissolved or suspended in acetone and is added into 4 ml aliquots of half strength Potato Dextrose Broth (PDB) dispended in 25-compartment petri dishes to give a final concentration of 10ppm. The fungal inoculum consists of mycelial fragments of P. herpotrichoides grown in half strength PDB in shaken flasks and added to the broth to provide 5×10^4 fragments/ml broth. Petri dishes are incubated at 20° C. for 10 days until the assessment of mycelial growth. The extent of disease control in all the above tests is expressed as a rating compared with either an untreated control or a diluent-sprayed-control, according to the criteria: […]

Pyricularia oryzae = assay type: in vivo; conditions: rice seedlings, direct therapeutic foliar spray, 600 ppm, 4-5 days
[3] = system: Erysiphe graminis f.sp. hordei; test: Activity against barley powdery mildew, direct therapeutic (EGT); assay type: in vivo; conditions: direct therapeutic foliar spray, 600 ppm, up to 7 days
Protocol: (e) Activity against barley powdery mildew (Erysiphe graminis f.sp. hordei; EGT) The test is a direct therapeutic foliar spray. Leaves of barley seedlings, (cv. Golden Promise) at the single leaf stage are inoculated by dusting with mildew conidia one day prior to treatment with the test compound. The inoculated plants are kept overnight at glasshouse ambient temperature (18° C.) and humidity (40%) prior to treatment. The plants are sprayed with the test compound at a dosage of 600 ppm using an automated sprayline as described under (a). After drying, plants are returned to a compartment at 18° C. and 40% humidity for up to 7 days. Assessment is based on the percentage of leaf area covered by sporulation compared with that on leaves of control plants. The extent of disease control in all the above tests is expressed as a rating compared with either an untreated control or a diluent-sprayed-control, according to the criteria: […]

Plasmopara viticola = test: Antisporulant activity against vine downy mildew (PVA); assay type: in vivo; conditions: vine leaves, antisporulant foliar spray, 600 ppm, 750 l/ha
Protocol: (a) Antisporulant activity against vine downy mildew (Plasmopara viticola; PVA) The test is a direct antisporulant one using a foliar spray. The lower surfaces of leaves of whole vine plants (cv Cabernet Sauvignon), approximately 8 cm high, are inoculated by spraying with an aqueous suspension containing 5×10^4 zoosporangia/ml. The inoculated plants are kept for 24 hours at 21° C. in a high humidity compartment, then 24 hours at glasshouse ambient temperature and humidity. Infected leaves are sprayed on their lower surfaces with a solution of active material in 1:1 water/acetone containing 0.04% "TWEEN 20" (Trade Mark; a polyoxyethylene sorbitan ester surfactant). Plants are treated using an automated sprayline with an atomising nozzle. The concentration of the compound is 600 ppm, and the spray volume is 750 l/ha. After spraying, the plants are returned to normal glasshouse conditions for 96 hours and are then transferred to the high humidity compartment for 24 hours to induce sporulation. Assessment is based on the percentage of the leaf area covered by sporulation compared with that on control leaves. The extent of disease control in all the above tests is expressed as a rating compared with either an untreated control or a diluent-sprayed-control, according to the criteria: […]

Venturia inaequalis = test: Activity against apple scab in-vitro (VII); assay type: cell-based; conditions: 10 ppm, 10 days, 20° C., mycelial growth
Protocol: (j) Activity against apple scab in-vitro (Venturia inaequalis: VII) This test measures the in-vitro activity of compounds against V. inaequalis that causes apple scab. The test compound in acetone is added into 4 ml aliquots of half strength Potato Dextrose Broth dispensed in 25-compartment petri dishes to give final concentrations of 10 ppm. The fungal inoculum consists of mycelial fragments and spores of V. inaequalis grown on malt agar and added to the broth to provide 5×10^4 propagules/ml broth. Petri dishes are incubated at 20° C. for 10 days until the assessment of mycelial growth. The extent of disease control in all the above tests is expressed as a rating compared with either an untreated control or a diluent-sprayed-control, according to the criteria: […]

Leptosphaeria nodorum = test: Activity against wheat leafspot (LN); assay type: in vivo; conditions: direct therapeutic foliar spray, 600 ppm, 6-8 days
Protocol: (d) Activity against wheat leafspot (Leptosphaeria nodorum; LN.) The test is a direct therapeutic foliar spray. Leaves of wheat plants (cv Norman), at the single leaf stage, are inoculated by spraying with an aqueous suspension containing 1.5×10^6 conidia/ml. The inoculated plants are kept for 24 hours in a high humidity compartment prior to treatment. The plants are sprayed with a solution of the test compound at a dosage of 600 ppm using an automated sprayline as described under (a). After drying, the plants are kept for 6-8 days at 22° C. and moderate humidity (70%). Assessment is based on the density of lesions per leaf compared with that on leaves of control plants. The extent of disease control in all the above tests is expressed as a rating compared with either an untreated control or a diluent-sprayed-control, according to the criteria: […]

Compound	disease control rating AS (Alternaria solani)	disease control rating RSI (Rhizoctonia solani)	disease control rating PIP (Phytophthora infestans)	disease control rating EGP [1]	disease control rating BCB (Botrytis cinerea)	disease control rating PHI [2]	disease control rating PO (Pyricularia oryzae)	disease control rating EGT [3]	disease control rating PVA (Plasmopara viticola)	disease control rating VII (Venturia inaequalis)	disease control rating LN (Leptosphaeria nodorum)
CC(C)(C)C1CCC2(CC1)CC(N1CCCCC1)CO2 (stereo not shown) [Compound 10]	0 (less than 50% disease control)	0 (less than 50% disease control)	0 (less than 50% disease control)	2 (greater than 80% disease control)	2 (greater than 80% disease control)	1 (about 50-80% disease control)	0 (less than 50% disease control)	2 (greater than 80% disease control)	0 (less than 50% disease control)	1 (about 50-80% disease control)	1 (about 50-80% disease control)
CC(C)(C)C1CCC2(CC1)CC(N1CCOCC1)CO2 (stereo not shown) [Compound 11]	0 (less than 50% disease control)	0 (less than 50% disease control)	0 (less than 50% disease control)	2 (greater than 80% disease control)	0 (less than 50% disease control)	1 (about 50-80% disease control)	0 (less than 50% disease control)	0 (less than 50% disease control)	0 (less than 50% disease control)	1 (about 50-80% disease control)	0 (less than 50% disease control)
CCCCN(CCCC)C1COC2(CCC(C(C)(C)C)CC2)C1 (stereo not shown) [Compound 12]	0 (less than 50% disease control)	0 (less than 50% disease control)	0 (less than 50% disease control)	2 (greater than 80% disease control)	2 (greater than 80% disease control)	0 (less than 50% disease control)	0 (less than 50% disease control)	2 (greater than 80% disease control)	0 (less than 50% disease control)	2 (greater than 80% disease control)	0 (less than 50% disease control)
CCCN(CCC)C1COC2(CCC(C(C)(C)C)CC2)C1 (stereo not shown) [Compound 13]	0 (less than 50% disease control)	0 (less than 50% disease control)	0 (less than 50% disease control)	2 (greater than 80% disease control)	0 (less than 50% disease control)	0 (less than 50% disease control)	0 (less than 50% disease control)	2 (greater than 80% disease control)	0 (less than 50% disease control)	2 (greater than 80% disease control)	0 (less than 50% disease control)
CCCCCCN(C)C1COC2(CCC(C(C)(C)C)CC2)C1 (stereo not shown) [Compound 14]	0 (less than 50% disease control)	1 (about 50-80% disease control)	0 (less than 50% disease control)	2 (greater than 80% disease control)	0 (less than 50% disease control)	2 (greater than 80% disease control)	0 (less than 50% disease control)	2 (greater than 80% disease control)	0 (less than 50% disease control)	2 (greater than 80% disease control)	1 (about 50-80% disease control)
